Measured values: US9981940B2, “Aryl sulfide derivatives and aryl sulfoxide derivatives as acaricides and insecticides” (BAYER CROPSCIENCE AKTIENGESELLSCHAFT, priority 2013, dated 2018)

Columns and labels:
[1] = log P by HPLC (OECD Guideline 117), method [b] neutral range; format: physicochemical; conditions: HPLC; for logP[b]: method [b] neutral range
Procedure: (§1) The log P values were determined analogously to OECD Guideline 117 (EC Directive 92/69/EEC) by HPLC (high-performance liquid chromatography) using reversed-phase columns (C 18), by the following methods:
[b] The LC-MS determination in the neutral range is effected at pH 7.8 with 0.001 molar aqueous ammonium hydrogencarbonate solution and acetonitrile as eluents; linear gradient from 10% acetonitrile to 95% acetonitrile.

[2] = log P by HPLC (OECD Guideline 117), method [a] acidic range; format: physicochemical; conditions: for logP[a]: HPLC, method [a] acidic range; for chromatographic logP: reversed-phase C18 HPLC column, acidic range
Procedure: as §1
[a] The LC-MS determination in the acidic range is effected at pH 2.7 with 0.1% aqueous formic acid and acetonitrile (contains 0.1% formic acid) as eluents; linear gradient from 10% acetonitrile to 95% acetonitrile.

Tetranychus urticae = Tetranychus urticae spray test, OP-resistant (TETRUR); format: in vivo; conditions: after 6 days
Method in brief: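 Mortality as % efficacy (0% = no mites killed) read 6 days after spraying. Formulation: active ingredient in acetone/dimethylformamide plus emulsifier, diluted with emulsifier-containing water, applied to Phaseolus vulgaris leaf discs carrying every life stage of OP-resistant spider mites.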

SMILES | logP[b] [1] | logP[a] [2] | efficacy (Tetranychus urticae; application rate of 500 g/ha) [%] | chromatographic logP ([1]; reversed-phase C18 HPLC column, neutral range, pH 7.8) | chromatographic logP ([2]; pH 2.7, HPLC method [a], read-out: logP[a]) | chromatographic logP ([2]; pH 2.7, HPLC, pH 2.7, read-out: log P[a]) | pest or weed control at 500 g/ha (Tetranychus urticae; Tetranychus urticae, 144 h, application rate of 500 g/ha, read-out: efficacy) [%] | efficacy (Tetranychus urticae; application rate of 20 g/ha) [%]
Cc1cc(F)c(-n2ncn(Cc3ccccc3)c2=O)cc1[S+]([O-])CC(F)(F)F (stereo not shown) [Example 370] | 2.36 | 2.35 | 100 |  |  |  |  | 
CCCOc1nn(-c2cc([S+]([O-])CC(F)(F)F)c(C)cc2F)c(=O)n1C (stereo not shown) [Example 132] | 2.47 | 2.52 | 100 |  |  |  |  | 
Cc1cc(F)c(-n2nc(C3CC3)n(C(C)C)c2=O)cc1[S+]([O-])CC(F)(F)F (racemic) [Example 353] | 2.55 | 2.58 | 100 |  |  |  |  | 
Cc1cc(F)c(-n2nc(C)n(C3CC3)c2=O)cc1SCC(F)(F)F [Example 42] | 2.73 | 2.76 | 90 |  |  |  |  | 
CCn1c(S(C)(=O)=O)nn(-c2cc([S+]([O-])CC(F)(F)F)c(C)cc2F)c1=O (stereo not shown) [Example 422] | 2.11 | 2.12 | 100 |  |  |  |  | 
COCCc1nn(-c2cc(SCC(F)(F)F)c(C)cc2F)c(=O)n1C1CC1 [Example 75] | 2.89 | 2.97 | 100 |  |  |  |  | 
Cc1cc(F)c(-n2nc(C3CCC3)n(C3CC3)c2=O)cc1SCC(F)(F)F [Example 87] | 3.77 | 3.85 | 100 |  |  |  |  | 
CNc1nn(-c2cc(SCC(F)(F)F)c(C)cc2F)c(=O)n1N [Example 218] | 2.04 | 2.06 | 90 |  |  |  |  | 
O=c1n(-c2ccc(C(F)(F)F)c(SCC(F)(F)F)c2)nc(OCC(F)(F)F)n1C1CC1 [Example 189] | 4.48 | 4.55 | 100 |  |  |  |  | 
COc1nn(-c2cc([S+]([O-])CC(F)(F)F)c(Cl)cc2Cl)c(=O)n1C (stereo not shown) [Example 97] | 2.24 | 2.26 | 90 |  |  |  |  | 
CCCCc1nn(-c2cc(SCC(F)(F)F)c(C)cc2F)c(=O)n1C1CC1 [Example 71] | 3.96 | 4.05 | 90 |  |  |  |  | 
C=CCn1c([S+]([O-])CC)nn(-c2cc([S+]([O-])CC(F)(F)F)c(C)cc2F)c1=O (stereo not shown) [Example 424] | 2.04 | 2.05 | 90 |  |  |  |  | 
CC[S+]([O-])c1nn(-c2cc([S+]([O-])CC(F)(F)F)c(C)cc2F)c(=O)n1C (stereo not shown) [Example 244, 5-(Ethylsulphinyl)-2-{2-fluoro-4-methyl-5-[(2,2,2-trifluoroethyl)sulphinyl]phenyl}-4-methyl-2,4-dihydro-3H-1,2,4-triazol-3-one] |  |  |  | 1.65 | 1.69 | 1.69 | 100 | 
COCCc1nn(-c2cc([S+]([O-])CC(F)(F)F)c(C)cc2F)c(=O)n1C1CC1 (racemic) [Example 76] | 1.97 | 2.03 | 100 |  |  |  |  | 
Cc1cc(F)c(-n2nc(CC(C)C)n(C3CC3)c2=O)cc1SCC(F)(F)F [Example 83] | 3.93 | 3.99 | 100 |  |  |  |  | 
Cc1cc(F)c(-n2nc(OC(C)C)n(C)c2=O)cc1SCC(F)(F)F [Example 151] | 3.53 | 3.61 | 100 |  |  |  |  | 
C=CCSc1nn(-c2cc(SCC(F)(F)F)c(C)cc2F)c(=O)n1C [Example 290] | 3.56 | 3.62 | 100 |  |  |  |  | 
CCn1c(C(F)(F)F)nn(-c2ccc(C)c(SCC(F)(F)F)c2)c1=O [Example 54] | 4.32 | 4.38 | 90 |  |  |  |  | 
Cc1cc(F)c(-n2nc(CCOC(C)C)n(C3CC3)c2=O)cc1SCC(F)(F)F [Example 359] | 3.66 | 3.63 | 100 |  |  |  |  | 
Cc1cc(F)c(-n2ncn(C(C)(C)C)c2=O)cc1[S+]([O-])CC(F)(F)F (stereo not shown) [Example 369] | 2.16 | 2.21 | 100 |  |  |  |  | 

SMILES | logP[b] [1] | logP[a] [2] | efficacy (Tetranychus urticae; application rate of 500 g/ha) [%] | chromatographic logP ([1]; reversed-phase C18 HPLC column, neutral range, pH 7.8) | chromatographic logP ([2]; pH 2.7, HPLC method [a], read-out: logP[a]) | chromatographic logP ([2]; pH 2.7, HPLC, pH 2.7, read-out: log P[a]) | pest or weed control at 500 g/ha (Tetranychus urticae; Tetranychus urticae, 144 h, application rate of 500 g/ha, read-out: efficacy) [%] | efficacy (Tetranychus urticae; application rate of 20 g/ha) [%]
CCn1c(OC)nn(-c2cc(SCC(F)(F)F)c(C)cc2F)c1=O [Example 180] | 3.10 | 3.16 | 100 |  |  |  |  | 
Cc1cc(F)c(-n2nc(C(C)(C)C)oc2=O)cc1SCC(F)(F)F [Example 449] | 4.25 | 4.30 | 90 |  |  |  |  | 
CCCSc1nn(-c2cc([S+]([O-])CC(F)(F)F)c(C)cc2F)c(=O)n1C (stereo not shown) [Example 278] | 2.74 | 2.80 | 100 |  |  |  |  | 
CNn1cnn(-c2cc(SCC(F)(F)F)c(C)cc2F)c1=O [Example 203] | 2.27 | 2.32 | 100 |  |  |  |  | 
Cc1cc(C)c(-n2nc(C(F)(F)F)n(C(C)(C)C)c2=O)cc1SCC(F)(F)F [Example 49] | 4.88 | 4.95 | 90 |  |  |  |  | 
Cc1cc(F)c(-n2nc(SCC3CC3)n(C)c2=O)cc1SCC(F)(F)F [Example 279] | 3.83 | 3.91 | 100 |  |  |  |  | 
Cc1ccc(-n2nc(-n3nc(Oc4ccccc4)n(C)c3=O)n(C)c2=O)cc1SCC(F)(F)F [Example 192] | 3.68 | 3.76 | 90 |  |  |  |  | 
COC1=CC(=O)N(c2ccc(Cl)c([S+]([O-])CC(F)(F)F)c2)C1 (racemic) [Example 315] | 2.23 | 2.24 | 90 |  |  |  |  | 
CCCCc1nn(-c2cc([S+]([O-])CC(F)(F)F)c(C)cc2F)c(=O)n1C1CC1 (racemic) [Example 72] | 2.88 | 2.94 | 90 |  |  |  |  | 
CCOc1nn(-c2cc([S+]([O-])CC(F)(F)F)c(C)cc2F)c(=O)n1C (stereo not shown) [Example 131] | 2.09 | 2.13 | 90 |  |  |  |  | 
Cc1cc(F)c(-n2ncn(Cc3ccccc3)c2=O)cc1SCC(F)(F)F [Example 368] | 3.34 | 3.38 | 100 |  |  |  |  | 
CC=Cc1nn(-c2cc([S+]([O-])CC(F)(F)F)c(C)cc2F)c(=O)n1C1CC1 (racemic) [Example 82] | 2.42 | 2.48 | 100 |  |  |  |  | 
Cc1cc(F)c(-n2nc(NC(C)C)n(N)c2=O)cc1SCC(F)(F)F [Example 224] | 2.71 | 2.74 | 90 |  |  |  |  | 
COc1nn(-c2cc([S+]([O-])CC(F)(F)F)c(C)cc2F)c(=O)n1C1CC1 (single isomer, unassigned) [Example 380] | 2.09 | 2.14 | 100 |  |  |  |  | 
CCOC1=CC(=O)N(c2cc([S+]([O-])CC(F)(F)F)c(C)cc2F)C1 (stereo not shown) [Example 334] | 2.14 | 2.19 |  |  |  |  |  | 90
CCOc1nn(-c2cc([S+]([O-])CC(F)(F)F)c(C)cc2F)c(=O)n1CC (stereo not shown) [Example 409] | 2.44 | 2.44 | 90 |  |  |  |  | 
Cc1cc(F)c(-n2nc(C(C)(C)C)oc2=O)cc1[S+]([O-])CC(F)(F)F (racemic) [Example 452] | 3.09 | 3.10 | 100 |  |  |  |  | 
CCCSc1nn(-c2cc([S+]([O-])CC(F)(F)F)c(C)cc2F)c(=O)n1C1CC1 (stereo not shown) [Example 266] | 3.17 | 3.24 | 100 |  |  |  |  | 
COc1nn(-c2cc([S+]([O-])CC(F)(F)F)c(C)cc2F)c(=O)n1C1CC1 (single isomer, unassigned) [Example 379] | 2.09 | 2.14 | 90 |  |  |  |  | 
